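All cell lines were grown in 96-well plates and treated with compound for 48 hours. The concentration for full growth arrest is given as TGI.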
What was measured:
Assay in all cases: NCI anticancer screen, dose series, 48 h
[1] = system: HOP-92 NSCLC
[2] = system: OVCAR-5 ovarian
[3] = system: OVCAR-4 ovarian
[4] = system: NCI-H522 lung
[5] = system: HT29 colon
[6] = system: SW-620 colon
[7] = system: 786-0 renal
[8] = system: MDA-MB-231 breast
[9] = system: A498 renal
[10] = system: NCI-H23 lung
[11] = system: HCC-2998 colon
[12] = system: HOP-62 NSCLC
[13] = system: CAKI-1 renal
[14] = system: DU-145 prostate
[15] = system: UACC-257 melanoma
[16] = system: OVCAR-3 ovarian
[17] = system: CCRF-CEM leukemia
[18] = system: LOX IMVI melanoma
[19] = system: MALME-3M melanoma

Compound | TGI [1] [µM] | TGI [2] [µM] | TGI [3] [µM] | TGI [4] [µM] | TGI [5] [µM] | TGI [6] [µM] | TGI [7] [µM] | TGI [8] [µM] | TGI [9] [µM] | TGI [10] [µM] | TGI [11] [µM] | TGI [12] [µM] | TGI [13] [µM] | TGI [14] [µM] | TGI [15] [µM] | TGI [16] [µM] | TGI [17] [µM] | TGI [18] [µM] | TGI [19] [µM]
Cc1cc(OCc2nn(CN3CCN(C)CC3)c(=S)n2/N=C/c2ccc(-c3ccc(Cl)cc3Cl)o2)ccc1Cl | 95.9 | > 100 | 70.6 | 59 | > 100 | 51 | > 100 | > 100 | > 100 | > 100 | 31.4 | > 100 | > 100 | > 100 | > 100 | > 100 | > 100 | > 100 | –
Cc1nc(Nc2ccc(F)cc2)c2sc(=S)n(-c3ccc(F)cc3)c2n1 | – | 36.3 | 40.8 | 30.1 | 19.9 | 21.4 | 21.6 | 26.9 | 33.4 | 16.9 | 24.7 | 24.1 | 35.5 | 26.2 | 26.2 | 30.9 | – | 17 | 28.8
Cc1nn(C(=O)c2ccncc2)c2c1C(c1ccc(Cl)cc1)SC(N)=N2 (centres undefined) | > 10 | > 10 | > 10 | – | > 10 | > 10 | > 10 | > 10 | – | > 10 | > 10 | > 10 | > 10 | > 10 | > 10 | > 10 | > 10 | > 10 | > 10
C=CC(C)(C)C(=C)C(=O)N(C)c1ccccc1I | > 100 | > 100 | > 100 | > 100 | > 100 | > 100 | > 100 | > 100 | > 100 | > 100 | > 100 | > 100 | > 100 | > 100 | > 100 | > 100 | > 100 | > 100 | –
COc1cc(C[C@H]2C(=O)OC[C@@H]2Cc2ccc(OC)c(OC)c2)cc(OC)c1 | > 100 | > 100 | > 100 | > 100 | > 100 | > 100 | > 100 | > 100 | – | > 100 | > 100 | > 100 | > 100 | > 100 | > 100 | > 100 | > 100 | 49.5 | > 100
CCN(CC)c1ccc(C2SCC(=O)N2c2ccc(NC(=O)c3ccc(N4C(=O)CSC4c4ccc(N(CC)CC)cc4)cc3)cc2)cc1 (centres undefined) | > 100 | > 100 | > 100 | > 100 | > 100 | > 100 | > 100 | > 100 | – | > 100 | > 100 | > 100 | > 100 | > 100 | > 100 | > 100 | > 100 | > 100 | > 100
CCN(CCCN(CC)C(=O)Nc1ccccc1)C(=O)Nc1ccccc1 | > 100 | > 100 | > 100 | > 100 | > 100 | > 100 | > 100 | > 100 | – | > 100 | > 100 | > 100 | > 100 | > 100 | > 100 | > 100 | > 100 | > 100 | > 100
COc1cc2nc(-c3cccs3)nc(N3C(c4ccc(O)cc4)=NNC(=O)c4ccccc43)c2cc1OC | – | 84.2 | > 100 | > 100 | 67.9 | 79.8 | > 100 | 42.6 | > 100 | 78.1 | 38.5 | > 100 | 43.9 | > 100 | 84.9 | – | > 100 | 54.6 | 43.9
C(=Nc1ccc(-c2cc(-c3ccccc3)nc3ccc4ccccc4c23)cc1)c1ccccc1 | – | > 100 | 13.5 | – | 40.3 | > 100 | > 100 | > 100 | 70.3 | > 100 | 26.6 | 56.1 | 75.4 | 68.6 | 92.1 | 68.9 | > 100 | > 100 | > 100
C=C(C(=O)O)C1CCC(CC/C=C(\C)CC/C=C(\C)CCC=C(C)C)CO1 (centres undefined) | – | 35.7 | > 100 | 48.6 | 29.3 | 33.4 | 28.1 | > 100 | 54.4 | 40.5 | – | 55.6 | > 100 | 42.2 | 52.9 | – | > 100 | 24.6 | 63
OCC1OC(Oc2cc(O)cc(/C=C/c3ccc(O)cc3)c2)C(O)C(O)C1O (centres undefined) | > 100 | > 100 | > 100 | > 100 | > 100 | > 100 | > 100 | > 100 | > 100 | – | – | > 100 | > 100 | > 100 | > 100 | > 100 | > 100 | > 100 | –
Cc1nc(-n2[nH]c(C)c(CCO)c2=O)[nH]c(=O)c1CCO | > 100 | – | > 100 | > 100 | > 100 | > 100 | > 100 | > 100 | > 100 | > 100 | > 100 | > 100 | > 100 | > 100 | > 100 | > 100 | > 100 | > 100 | –
CCO[C@@H]1CCC(S(=O)c2ccc(C)cc2)=CO1 (some centres undefined) | – | > 100 | > 100 | > 100 | > 100 | > 100 | > 100 | > 100 | > 100 | > 100 | > 100 | > 100 | > 100 | > 100 | > 100 | > 100 | – | > 100 | > 100
Cc1cnc(/N=c2\sc(C)cn2-c2ncc(C)s2)s1 | > 100 | > 100 | > 100 | > 100 | > 100 | > 100 | > 100 | > 100 | – | > 100 | > 100 | > 100 | – | > 100 | > 100 | > 100 | > 100 | > 100 | > 100
c1ccc(-c2ccc(-c3cc4ccccc4[nH]3)cc2)cc1 | > 100 | > 100 | > 100 | > 100 | > 100 | > 100 | > 100 | > 100 | – | > 100 | > 100 | > 100 | > 100 | > 100 | > 100 | > 100 | > 100 | > 100 | > 100
C=C[C@H]1CC[C@H]2[C@@H]3CC=C4C[C@@H](OC5OCC(O)C(O)C5O)CC[C@]4(C)[C@H]3CC[C@]12C (some centres undefined) | 16.8 | 28.1 | – | 25.9 | 61.3 | 40.2 | 34.1 | 39.6 | 21 | 66.3 | – | > 100 | 23.8 | > 100 | > 100 | 25.5 | > 100 | 26.7 | –
C/C(=N\NC(=S)NC1CCCC1)c1ccccn1 | – | > 100 | > 100 | 42.4 | > 100 | > 100 | > 100 | > 57.2 | > 28 | > 100 | > 100 | > 81.9 | > 100 | > 43 | – | 10.3 | – | 17.8 | > 28.6
CSc1nc(-c2ccc(C)cc2)c(C#N)c(=O)[nH]1 | > 100 | > 100 | > 100 | > 100 | > 100 | > 100 | > 100 | > 100 | > 100 | > 100 | > 100 | > 100 | > 100 | > 100 | > 100 | > 100 | > 100 | – | –
O=C(Cn1cc(F)c(=O)[nH]c1=O)C12CC3CC(CC(C3)C1)C2 | – | > 100 | > 100 | > 100 | > 100 | > 100 | > 100 | > 100 | > 100 | > 100 | > 100 | > 100 | > 100 | > 100 | > 100 | > 100 | > 100 | > 100 | > 100
CCN1CN(c2ccccc2)C2(CCN(CCCSc3ccc(F)cc3)CC2)C1=O | – | 20.5 | – | 30 | 13.3 | 26.1 | 26.6 | 29 | – | 24.1 | – | 12.6 | 35.7 | 17.9 | 17.1 | 27.2 | 24.6 | 31.5 | 36.1
O=C1NC(=S)NC(=O)C1C(c1ccc([N+](=O)[O-])cc1)C1C(=O)NC(=S)NC1=O | > 100 | > 100 | > 100 | > 100 | > 100 | > 100 | > 100 | > 100 | > 100 | > 100 | – | > 100 | > 100 | > 100 | > 100 | > 100 | > 100 | > 100 | –
O=c1[nH]c(=O)n(COCCO)c2ccc(Br)cc12 | > 100 | > 100 | > 100 | – | > 100 | > 100 | > 100 | > 100 | > 100 | – | – | – | > 100 | > 100 | > 100 | > 100 | > 100 | > 100 | –
c1cc(CSP234N5CCN2CCN3CCN4CC5)ccc1CSP123N4CCN1CCN2CCN3CC4 | > 100 | > 100 | > 100 | > 100 | > 100 | > 100 | > 100 | > 100 | – | > 100 | > 100 | > 100 | > 100 | > 100 | > 100 | > 100 | > 100 | > 100 | –
Cc1ccccc1NC(=O)C(=O)CC(=O)c1sc(Nc2ccccc2[N+](=O)[O-])nc1C | 59.6 | > 100 | 52.9 | 86.1 | > 100 | > 100 | 48.3 | 40.2 | – | > 100 | 59.3 | 58.1 | > 100 | > 100 | > 100 | 79.5 | – | > 100 | –
COc1ccc(C2C3CCc4ccccc4C3=NN2S(=O)(=O)c2ccc(Cl)cc2)cc1 (centres undefined) | > 100 | > 100 | > 100 | 37.6 | 63.3 | > 100 | 66.6 | > 100 | – | > 100 | – | > 100 | > 100 | > 100 | > 100 | > 100 | > 100 | > 100 | > 100
CC(=O)O[C@@H]1[C@H]2[C@@H](OC(=O)c3ccccc3)[C@@H](C)C[C@]2(O)[C@H](OC(C)=O)[C@@]2(C)[C@@H]3CC(C)(C)C(=O)[C@]3(OC(C)=O)C[C@@]12C | > 25 | > 25 | > 25 | > 25 | – | > 25 | > 25 | > 25 | > 25 | > 25 | > 25 | > 25 | > 25 | > 25 | > 25 | > 25 | > 25 | > 25 | –

Reference: PubChem BioAssay (NCI)
